# According to patent US11401270B2, “Alcoxyamino derivatives for treating pain and pain related conditions” (ESTEVE PHARMACEUTICALS, S.A., priority 2017, dated 2022):
# Where two headings read alike, the source gives them in different places.
# How the values were obtained:
# [1] = biological target: Human norepinephrine transporter (NET) (Homo sapiens (Human), UniProt P23975); experiment: Binding Assay to Human Norepinephrine Transporter (NET); conditions: Table 2, dual compounds; human NET enriched membranes, 5 nM [3H]-Nisoxetin; read-out: Ki(nM) NET Hum
# Chain of Human norepinephrine transporter (NET) (P23975 whole entry): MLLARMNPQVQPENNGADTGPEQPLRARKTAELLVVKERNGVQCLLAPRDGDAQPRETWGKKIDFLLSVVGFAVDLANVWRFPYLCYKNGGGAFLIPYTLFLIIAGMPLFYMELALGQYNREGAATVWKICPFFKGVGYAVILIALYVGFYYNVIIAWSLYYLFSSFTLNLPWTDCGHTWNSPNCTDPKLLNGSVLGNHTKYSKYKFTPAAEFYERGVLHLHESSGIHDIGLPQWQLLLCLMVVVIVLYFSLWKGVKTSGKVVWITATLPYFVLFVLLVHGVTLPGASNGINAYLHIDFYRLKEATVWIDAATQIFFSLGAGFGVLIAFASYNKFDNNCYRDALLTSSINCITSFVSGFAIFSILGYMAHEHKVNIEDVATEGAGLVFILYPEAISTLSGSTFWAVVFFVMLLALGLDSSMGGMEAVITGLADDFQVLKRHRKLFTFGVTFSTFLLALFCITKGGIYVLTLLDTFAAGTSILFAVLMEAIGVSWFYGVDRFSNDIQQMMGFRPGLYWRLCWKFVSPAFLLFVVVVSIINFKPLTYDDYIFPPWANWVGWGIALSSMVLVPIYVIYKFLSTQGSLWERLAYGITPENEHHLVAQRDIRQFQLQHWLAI
# Protocol: Binding Assay to Human Norepinephrine Transporter (NET).
# Human norepinephrine transporter (NET) enriched membranes (5 μg) were incubated with 5 nM of radiolabeled [3H]-Nisoxetin in assay buffer containing 50 mM Tris-HCl, 120 mM NaCl, 5 mM KCl, pH 7.4.
# NSB (non specific binding) was measured by adding 10 μM desipramine. The binding of the test compound was measured in five different concentrations. After 60 min incubation at 4° C., binding reaction was terminated by filtering through Multiscreen GF/C (Millipore) presoaked in 0.5% polyethyleneimine in Vacuum Manifold Station, followed by 3 washes with ice-cold filtration buffer containing 50 mM Tris-HCl, 0.9% NaCl, pH 7.4.
# Filter plates were dried at 60° C. for 1 hour and 30 μl of scintillation cocktail were added to each well before radioactivity reading.
# [2] = biological target: Human α2δ-1 subunit of Cav2.2 calcium channel (Homo sapiens (Human), UniProt P54289); experiment: Binding Assay to Human α2δ-1 Subunit of Cav2.2 Calcium Channel; conditions: human α2δ-1 enriched membranes, 15 nM [3H]-Gabapentin, read-out: Ki(nM) alpha2delta Hum
# Chain of Human α2δ-1 subunit of Cav2.2 calcium channel (P54289 25-1103): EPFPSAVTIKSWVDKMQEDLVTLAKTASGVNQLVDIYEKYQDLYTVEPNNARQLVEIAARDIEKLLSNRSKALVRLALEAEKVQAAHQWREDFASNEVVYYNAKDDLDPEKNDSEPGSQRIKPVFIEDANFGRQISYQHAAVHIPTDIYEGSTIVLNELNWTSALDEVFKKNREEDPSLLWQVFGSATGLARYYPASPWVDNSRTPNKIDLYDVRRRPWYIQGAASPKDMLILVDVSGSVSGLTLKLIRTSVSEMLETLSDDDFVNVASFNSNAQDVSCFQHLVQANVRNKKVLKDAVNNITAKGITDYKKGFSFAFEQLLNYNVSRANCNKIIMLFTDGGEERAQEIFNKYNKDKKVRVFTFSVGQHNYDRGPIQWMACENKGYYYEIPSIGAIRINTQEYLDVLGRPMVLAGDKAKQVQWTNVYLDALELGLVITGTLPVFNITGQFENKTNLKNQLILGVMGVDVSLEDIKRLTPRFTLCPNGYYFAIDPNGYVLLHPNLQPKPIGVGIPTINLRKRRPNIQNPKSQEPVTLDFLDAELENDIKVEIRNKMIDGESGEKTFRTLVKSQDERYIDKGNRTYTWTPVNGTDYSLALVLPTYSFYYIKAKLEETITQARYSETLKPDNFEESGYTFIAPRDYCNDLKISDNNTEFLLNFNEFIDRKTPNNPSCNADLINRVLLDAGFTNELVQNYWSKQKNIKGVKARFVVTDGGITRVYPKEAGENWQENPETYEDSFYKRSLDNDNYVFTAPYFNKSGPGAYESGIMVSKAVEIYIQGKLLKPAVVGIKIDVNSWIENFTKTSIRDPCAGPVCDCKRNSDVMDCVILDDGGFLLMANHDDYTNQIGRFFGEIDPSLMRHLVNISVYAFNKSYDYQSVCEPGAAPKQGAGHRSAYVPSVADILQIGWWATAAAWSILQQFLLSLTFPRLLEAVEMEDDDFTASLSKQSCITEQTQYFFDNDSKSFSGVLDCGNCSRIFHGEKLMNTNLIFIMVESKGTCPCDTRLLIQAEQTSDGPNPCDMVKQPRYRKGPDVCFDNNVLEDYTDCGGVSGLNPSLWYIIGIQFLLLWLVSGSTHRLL
# Procedure, shortened: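 Radioligand filtration binding at the α2δ-1 subunit, test compound at five concentrations; nonspecific binding defined with 10 μM pregabalin. Incubated 60 min at 27 °C, stopped by GF/C filtration (0.5% PEI presoaked) with ice-cold 50 mM Tris-HCl pH 7.4 washes; bound radioactivity counted by scintillation.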
SMILES,Ki [1] [nM],Ki ([2]; Table 1) [nM],"Ki ([2]; Table 2, dual compounds) [nM]"
"CNCC[C@H](Oc1cc(F)cc(N2CCN(C)c3ncccc3C2=O)c1)c1cccs1 [Example 120, (S)-4-(3-fluoro-5-(3-(methylamino)-1-(thiophen-2-yl)propoxy)phenyl)-1-methyl-1,2,3,4-tetrahydro-5H-pyrido[2,3-e][1,4]diazepin-5-one]",< 100,< 100,< 100
"CNCCC(Oc1cc(F)cc(N2CCN(C)c3ncccc3C2=O)c1)c1cccc(F)c1 (stereo not drawn) [Example 121, 4-(3-Fluoro-5-(1-(3-fluorophenyl)-3-(methylamino)propoxy)phenyl)-1-methyl-1,2,3,4-tetrahydro-5H-pyrido[2,3-e][1,4]diazepin-5-one]",< 100,< 100,< 100
"CNCCC(Oc1ccc(CN2CCN(C)c3ncccc3C2=O)c(F)c1)c1cccc(F)c1 (stereo not drawn) [Example 123, 4-(2-Fluoro-4-(1-(3-fluorophenyl)-3-(methylamino)propoxy)benzyl)-1-methyl-1,2,3,4-telrahydro-5H-pyrido[2,3-e][1,4]diazepin-5-one]",< 100,< 100,< 100
"CNCC[C@H](Oc1ccc(CN2CCN(C)c3ncccc3C2=O)c(Cl)c1)c1cccs1 [Example 126, (S)-4-(2-chloro-4-(3-(methylamino)-1-(thiophen-2-yl)propoxy)benzyl)-1-methyl-1,2,3,4-tetrahydro-5H-pyrido[2,3-e][1,4]diazepin-5-one]",< 100,< 100,< 100
"CNCCC(Oc1ccc(CN2CCN(C)c3ncccc3C2=O)c(F)c1)c1ccccc1F (stereo not drawn) [Example 129, 4-(2-Fluoro-4-(1-(2-fluorophenyl)-3-(methylamino)propoxy)benzyl)-1-methyl-1,2,3,4-tetrahydro-5H-pyrido[2,3-e][1,4]diazepin-5-one]",< 100,100 to 500,100 to 500
"CNCCC(Oc1ccc(CN2CCN(C)c3nc(N)ccc3C2=O)c(F)c1)c1cccc(F)c1 (stereo not drawn) [Example 131, 8-Amino-4-(2-fluoro-4-(1-(3-fluorophenyl)-3-(methylamino)propoxy)benzyl)-1-methyl-1,2,3,4-tetrahydro-5H-pyrido[2,3-e][1,4]diazepin-5-one]",< 100,< 100,< 100
"CNCC[C@H](Oc1ccc(CN2CCN(C)c3nc(OC)ccc3C2=O)c(F)c1)c1ccccc1 [Example 132, (S)-4-(2-fluoro-4-(3-(methylamino)-1-phenylpropoxy)benzyl)-8-methoxy-1-methyl-1,2,3,4-tetrahydro-5H-pyrido[2,3-e][1,4]diazepin-5-one]",< 100,100 to 500,100 to 500
"CNCC[C@H](Oc1ccc(CN2CCCn3nc(OC)cc3C2=O)c(C)c1)c1cccs1 [Example 134, (S)-2-methoxy-5-(2-methyl-4-(3-(methylamino)-1-(thiophen-2-yl)propoxy)benzyl)-5,6,7,8-tetrahydro-4H-pyrazolo[1,5-a][1,4]diazepin-4-one]",< 100,< 100,< 100
"CNCC[C@H](Oc1ccc(CN2CCN(C)c3ncccc3C2=O)c(F)c1)c1cccc(F)c1 [Example 136, (S)-4-(2-fluoro-4-(1-(3-fluorophenyl)-3-(methylamino)propoxy)benzyl)-1-methyl-1,2,3,4-tetrahydro-5H-pyrido[2,3-e][1,4]diazepin-5-one]",< 100,< 100,< 100
"CNCC[C@H](Oc1ccc(CN2CCN(C)c3nc(N)ccc3C2=O)c(F)c1)c1ccccc1 [Example 137, (S)-8-amino-4-(2-fluoro-4-(3-(methylamino)-1-phenylpropoxy)benzyl)-1-methyl-1,2,3,4-tetrahydro-5H-pyrido[2,3-e][1,4]diazepin-5-one]",< 100,100 to 500,100 to 500
"CNCC[C@H](Oc1ccc(CN2CCN(C)c3nc(N)ccc3C2=O)c(Cl)c1)c1ccccc1 [Example 138, (S)-8-amino-4-(2-chloro-4-(3-(methylamino)-1-phenylpropoxy)benzyl)-1-methyl-1,2,3,4-tetrahydro-5H-pyrido[2,3-e][1,4]diazepin-5-one]",< 100,< 100,< 100
"CNCC[C@H](Oc1ccc(CN2CCCn3nc(C)cc3C2=O)c(F)c1)c1ccccc1 [Example 139, (S)-5-(2-fluoro-4-(3-(methylamino)-1-phenylpropoxy)benzyl)-2-methyl-5,6,7,8-tetrahydro-4H-pyrazolo[1,5-a][1,4]diazepin-4-one]",< 100,100 to 500,100 to 500
"CNCC[C@H](Oc1ccc(CN2CCN(C)c3cnc(OC)cc3C2=O)c(F)c1)c1ccccc1 [Example 140, (S)-4-(2-fluoro-4-(3-(methylamino)-1-phenylpropoxy)benzyl)-7-methoxy-1-methyl-1,2,3,4-tetrahydro-5H-pyrido[3,4-e][1,4]diazepin-5-one]",< 100,< 100,< 100
"CNCC[C@H](Oc1ccc(CN2CCN(C)c3ncccc3C2=O)c(Cl)c1)c1ccccc1 [Example 141, (S)-(2-chloro-4-(3-(methylamino)-1-phenylpropoxy)benzyl)-1-methyl-1,2,3,4-telrahydro-5H-pyrido[2,3-e][1,4]diazepin-5-one]",< 100,< 100,< 100
"CNCC[C@H](Oc1ccc(CN2CCN(C)c3nc(O)ccc3C2=O)c(F)c1)c1ccccc1 [Example 142, (S)-4-(2-fluoro-4-(3-(methylamino)-1-phenylpropoxy)benzyl)-8-hydroxy-1-methyl-1,2,3,4-tetrahydro-5H-pyrido[2,3-e][1,4]diazepin-5-one]",< 100,> 3000,> 3000
"CNCC[C@H](Oc1ccc(CN2CCN(C)c3ncc(F)cc3C2=O)c(F)c1)c1ccccc1 [Example 143, (S)-7-fluoro-4-(2-fluoro-4-(3-(methylamino)-1-phenylpropoxy)benzyl)-1-methyl-1,2,3,4-tetrahydro-5H-pyrido[2,3-e][1,4]diazepin-5-one]",< 100,100 to 500,100 to 500
"CNCC[C@H](Oc1ccc(CN2CCCn3nc(OC)cc3C2=O)c(F)c1)c1ccccc1 [Example 144, (S)-5-(2-fluoro-4-(3-(methylamino)-1-phenylpropoxy)benzyl)-2-methoxy-5,6,7,8-tetrahydro-4H-pyrazolo[1,5-a][1,4]diazepin-4-one]",< 100,100 to 500,100 to 500
"CNCC[C@H](Oc1ccc(CN2CCCn3nccc3C2=O)c(F)c1)c1ccccc1 [Example 145, (S)-5-(2-fluoro-4-(3-(methylamino)-1-phenylpropoxy)benzyl)-5,6,7,8-tetrahydro-4H-pyrazolo[1,5-a][1,4]diazepin-4-one]",< 100,500 to 3000,500 to 3000
"CCNc1ccc2c(n1)N(C)CCN(Cc1ccc(O[C@@H](CCNC)c3cccc(F)c3)cc1F)C2=O [Example 148, (S)-8-(ethylamino)-4-(2-fluoro-4-(1-(3-fluorophenyl)-3-(methylamino)propoxy)benzyl)-1-methyl-1,2,3,4-tetrahydro-5H-pyrido[2,3-e][1,4]diazepin-5-one]",< 100,100 to 500,100 to 500
"CNCC[C@H](Oc1ccc(CN2CCN(C)c3ncccc3C2=O)c(Cl)c1)c1cccc(F)c1 [Example 149, (S)-4-(2-chloro-4-(1-(3-fluorophenyl)-3-(methylamino)propoxy)benzyl)-1-methyl-1,2,3,4-tetrahydro-5H-pyrido[2,3-e][1,4]diazepin-5-one]",< 100,< 100,< 100
"CNCC[C@H](Oc1ccc(CN2CCN(C)c3ncccc3C2=O)cc1)c1cccc(F)c1 [Example 151, (S)-4-(4-(1-(3-fluorophenyl)-3-(methylamjno)propoxy)benzyl)-1-methyl-1,2,3,4-tetrahydro-5H-pyrido[2,3-e][1,4]diazepin-5-one]",< 100,100 to 500,100 to 500
"CNCC[C@H](Oc1ccc(CN2CCN(C)c3ncccc3C2=O)c(F)c1)c1ccccc1F [Example 152, (S)-4-(2-fluoro-4-(1-(2-fluorophenyl)-3-(methylamino)propoxy)benzyl)-1-methyl-1,2,3,4-tetrahydro-5H-pyrido[2,3-e][1,4]diazepin-5-one]",< 100,< 100,< 100
"CNCC[C@H](Oc1ccc(CN2CCN(C)c3nc(N)ccc3C2=O)c(F)c1)c1cccc(F)c1 [Example 153, (S)-8-amino-4-(2-fluoro-4-(1-(3-fluorophenyl)-3-(methylamino)propoxy)benzyl)-1-methyl-1,2,3,4-tetrahydro-5H-pyrido[2,3-e][1,4]diazepin-5-one]",< 100,< 100,< 100
